{
  "source": "patent US20150141485A1",
  "about": "“PROGNOSIS AND TREATMENT OF LUNG CANCER USING miRNA-135b” (NATIONAL CHENG KUNG UNIVERSITY, priority 2013, published 2015)",
  "key": {"[1]": {"test_system": "CL1-5-F4 cells", "assay": "Soft agar anchorage-independent growth assay", "type": "cell-based, human", "conditions": "CL1-5-F4 cells transfected 48 hours, vs NC", "method": "CL1-5-F4 and Hop-62 cells were transfected with the negative control (NC) or the Anatago-135b for 48 hours and subjected to soft agar assays. Error bars indicate mean±s.d.,*P<0.05 by Student's t-test."}, "[2]": {"test_system": "pGL3-3′-UTRs of Hippo pathway genes", "assay": "Luciferase reporter assay, Hippo pathway 3'-UTRs", "type": "cell-based", "conditions": "CL1-0 cells co-transfected with miR-135b and pGL3-3′-UTRs, 60 hours", "method": "CL1-0 cells co-transfected with miR-135b and pGL3-3′-UTRs with scramble (NC) or Antago-135b for 60 hours. Luciferase activity was assayed and is presented a described in FIG. 6a. Mean±s.d. is shown, *P<0.05; **P<0.005 by Student's t-test.\nOne day before transfection, CL1-0 cells were seeded at a concentration of 2.5×10^4 per well. Next, the pClneo vector or miR-135b plasmid was co-transfected with the pGL3-target gene-3′UTR. The Renilla lunciferase plasmid (phRL-TK, Promega, Madison, Wis.) was co-transfected as transfection control. Cells were lysed 36 hours after transfection, and luciferase activity was measured using a Dual-Luciferase system (Promega, Madison, Wis.) according to the manufacture's protocol."}, "[3]": {"test_system": "H441 human lung adenocarcinoma cells", "assay": "Subcutaneous xenograft tumor growth", "type": "in vivo, nude mice", "method": "Nude mice were subcutaneously injected with 5×10^5 H441 cells. Scramble antagomir (NC) or miR-135b Antagomir (antago-135b) was administered via tail vein injection 2 days after implantation. On day 14 after cancer cell implantation, tumor volume measurements began and were performed every 4 days (n=9). Mean±s.e.m. is shown,*P<0.05 by Student's t-test.\n(§1) Animals were housed in a specific-pathgen-free environment in the animal facility of the Institute of Biomedical Sciences, Academia Sinica. All experimental procedures were in compliance with the Academia Sinica IACUC and Council of Agriculture Guidebook for the Care and Use of Laboratory Animals. For intravenous injections of the tumor cells, 1×10^6 cells were suspended in 0.1 mL of phosphate-buffered saline (PBS) and injected into lateral tail vein of SCID mice (10 mice per group). At 8 weeks after injection, all mice were killed, and lung surface tumor foci were counted. For the subcutaneous tumor assay, 1×10^6 CL1-0 cells or 2×10^5 H441 cells were subcutaneously injected in 0.1 mL of PBS into male nude mice (n=8 per group) and allowed to grow for 35 days to reach a volume of 50-200 mm^3 Control antagomir (Scramble) or anti-miR-135b antagomir (antago-135) was intravenously injected at a concentration of 10 μM in 0.1 mL of PBS 4 days after the cells were implanted. An example of a miR-135b antagomir is 5′mU(*)mC(*)mAmCmAmUmAmG-mGmAmAmUmGmAmAmAmAmGmCmC(*)mA(*)mU(*)mA(*)(3′-Ch1)3′ (SEQ ID NO:8). The mN indicates 2′-O-methyl base;* indicates phosphorothioate linkage; Ch1 indicates cholesterol."}, "[4]": {"test_system": "CL1-5-F4 cells", "assay": "Transwell invasion assay", "type": "cell-based, human", "conditions": "CL1-5-F4 cells transfected 48 hours, vs scramble (NC)", "method": "CL1-5-F4 and Hop-62 cells were transfected with scramble (NC) of miR-135b-specific antagomir (Antago-135b) for 48 hours and the subjected to migration assays (FIG. 2d) and invasion assays (FIG. 2e) as described above. *P<0.05;**P<0.005 by Student's t-test.\nCL1-5-F4 cells transfected with plasmids expressing either control or miR-135b sponges were analyzed using in vitro invasion assay. The average number of invading cells obtained in the transwell invasion assay is presented (n=3).\nTranswell chambers ([…], BD Falcon, Franklin Lakes, N.J.) were coated with the appropriate amount of Matrigel (BD Biosciences, San Jose, Calif.). Next, 2.5×10^4 cells were suspended in NuSerum-containing media (Gibco BRL, Grand Island N.Y., USA), seeded in the chamber and cultured, Cells that invaded the chamber from top to bottom were fixed with methanol and stained with a solution of propidium iodine (Sigma-Aldrich, St. Louis, Mo.). The propidiumiodine-positive signal was quantified using Analytical Imaging Station software package. Each sample was assayed in triplicate."}, "[5]": {"test_system": "CL1-5-F4 cells", "assay": "Late-stage metastasis model, intravenous injection of tumor cells", "type": "in vivo, mice", "conditions": "3 months after i.v. cell injection, tail vein treatments, P=0.018", "source_text": "CL1-5 cells with scramble antagomir (NC) or miR-135 antagomir (Antago-135b) were intravenously injected to assess the effect of antagomir on late-stage metastasis (n=9). Representative average of visible metastatic lung nodules and H&E staining (right). Data are expressed as the mean±s.e.m. *P<0.05 by Student's t-test.\nas §1, with “At 8 weeks after injection, all mice were killed, and lung surface tumor foci were counted.” left out, “An example of a miR-135b antagomir is 5′mU(*)mC(*)mAmCmAmUmAmG-mGmAmAmUmGmAmAmAmAmGmCmC(*)mA(*)mU(*)mA(*)(3′-Ch1)3′ (SEQ ID NO:8). The mN indicates 2′-O-methyl base;* indicates phosphorothioate linkage; Ch1 indicates cholesterol.” left out\nThe impact of the antagomir during the late stages in metastasis was determined, such as extravasation and colonization. […]"}, "[6]": {"test_system": "UACC-257 cells", "assay": "Western blot of endogenous LZTS1", "type": "cell-based", "conditions": "100 nM, 48 hours", "method": "CL1-5-F4 and UACC-257 cells were administrated with 100 nM of negative control (NC) or antago-135b for 48 hours. Total cell lysates were harvested for western blot analysis."}, "[7]": {"conditions": "antagomir systemically injected 4 days after cancer cell implantation"}},
  "note": "Oligonucleotides are written 5' to 3', each unit as a sugar letter and its base; * is a phosphorothioate linkage, no mark a phosphodiester; rarer units and linkages stand in square brackets, end groups in braces. Plain capitals give the bases only. {Chol} = cholesterol; m = 2'-O-methyl",
  "data": [
    {"substance": "5′mU(*)mC(*)mAmCmAmUmAmG-mGmAmAmUmGmAmAmAmAmGmCmC(*)mA(*)mU(*)mA(*)(3′-Ch1)3′ (SEQ ID NO:8) (mU*mC*mAmCmAmUmAmGmGmAmAmUmGmAmAmAmAmGmCmC*mA*mU*mA*{Chol}) [miR-135b antagomir]", "values": [
      {"measurement": "number of cell colonies (soft agar)", "setting": "[1]", "result": "decreased"},
      {"measurement": "miR-135b-induced reporter activity", "setting": "[2]", "result": "decrease"},
      {"measurement": "growth of H441 cells", "setting": "[3]; antagomir administered before xenograft implantation", "result": "inhibited"},
      {"measurement": "xenograft tumor incidence", "setting": "[3]; [7]", "result": "significantly reduced"},
      {"measurement": "xenograft tumor volume", "setting": "[3]; [7]", "result": "significantly reduced"},
      {"measurement": "invasive ability", "setting": "[4]", "result": "inhibited these changes"},
      {"measurement": "metastatic lung nodules vs control group", "setting": "[5]", "result": "eight-fold fewer"},
      {"measurement": "LZTS1 expression", "setting": "[6]", "result": "significantly increased"}
    ]}
  ]
}
